Patent US20230330254A1 (Regeneron Pharmaceuticals, Inc., priority 2022, published 2023)
Values after ≈ are worked out from the molar mass of the structure shown. Where a SMILES comes first, the peptide text is derived from it. [ ]: non-standard residue; d: D form. The star is where a group is joined. Bip(2'-Et,4'-O(CH2)4NH2) = CCc1cc(OCCCCN)ccc1-c1ccc(C[C@H](N)C(=O)O)cc1; Malonyl(2,2-Me2,histaminyl) = CC(C)(C(=O)NCCc1cnc[nH]1)C(=O)*; Nva(5-(3,5-Me2Ph)) = Cc1cc(C)cc(CCC[C@H](N)C(=O)O)c1; Ala(1H-tetrazol-5-yl) = N[C@@H](Cc1nnn[nH]1)C(=O)O; αMePhe(2-F) = C[C@](N)(Cc1ccccc1F)C(=O)O

What was measured:
human GLP1R [1] = molecular target: T1, human GLP1R (Homo sapiens, UniProt P43220); test: Luciferase reporter assay, HEK293/CRE-Luc/hGLP1R cells (Example 11); type: cell-based; design: engineered to express full-length human GLP1R, cynomolgus GLP1R; expressed in transfected cells; host or cells: HEK293/CRE-Luc; settings: Table 11; Experiment A
[2] = Liver microsome stability; type: in vitro ADME, human
Procedure: To assess the in vitro ADME properties of the LP, microsomal stability assay was performed to determine intrinsic clearance, and plasma protein binding assay was performed to understand the distribution potential.

[3] = Plasma protein binding (equilibrium dialysis); type: in vitro ADME, human
Procedure: The pH value of the resulting plasma was checked
(<http://www.htdialysis.com/>).
DMSO working solutions were prepared at 400 μM. […] These samples were transferred into new 96-well plates.

Water solubility = type: physicochemical; settings: Table 5C
HEK293/CRE-Luc cells = test: Luciferase reporter assay, HEK293/CRE-Luc cells without hGLP1R (Example 11); type: cell-based, human; settings: Table 11; Experiment A; no hGLP1R expression
Method in brief: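 Counter-screen in HEK293 cells carrying CRE-driven firefly luciferase without hGLP1R; 3-fold serial dilutions of payloads or linker-payloads at 0.2% final DMSO, 4–6 h.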

human GLP1R [4] = molecular target: T1, human GLP1R; test: CRE-Luc cAMP reporter assay, HEK293/CRE-Luc/hGLP1R (Example 24); type: cell-based; design: engineered to express full-length human GLP1R, cynomolgus GLP1R; expressed in transfected cells; host or cells: HEK293/CRE-Luc
Description: To test the activity of GLP1R agonist payloads, GLP1R agonist linker-payloads (LPs), and anti-GLP1R antibody-tethered ligands (ATLs) of the invention, a cell-based cAMP responsive luciferase reporter assay was developed. To generate the assay cell line, the firefly luciferase gene was placed under the control of a cAMP response element (CRE) located upstream of a minimal promoter and transfected into HEK293 cells and referred to herein as HEK293/CRE-Luc cells. HEK293/CRE-Luc cells were then engineered to express full-length human GLP1R (HEK293/CRE-Luc/hGLP1R), cynomolgus GLP1R (HEK293/CRE-Luc/mfGLP1R), or mouse GLP1R (HEK293/CRE-Luc/mGLP1R).
Serial dilutions of free payload and linker payloads (LP) were performed in 100% DMSO (ATCC, #4-X-5), followed by 1:100 dilution in assay media. Test articles were added to cells (1:5 dilution) with the last well in each serial dilution series serving as a blank control containing only assay media for antibodies and ATLs or assay media with 0.2% DMSO for payloads and LPs. After a 5-hour incubation at 37° C., luciferase activity was determined by addition of ONE-Glo reagent (Promega, #E6130) followed by measurement of relative light units (RLUs) on an EnVision Plate Reader (Perkin Elmer).
EC50 values for luminescence assays were determined using a four-parameter logistic equation over a 12-point dose response curve (GraphPad Prism).

T1 sequence (P43220 24-463): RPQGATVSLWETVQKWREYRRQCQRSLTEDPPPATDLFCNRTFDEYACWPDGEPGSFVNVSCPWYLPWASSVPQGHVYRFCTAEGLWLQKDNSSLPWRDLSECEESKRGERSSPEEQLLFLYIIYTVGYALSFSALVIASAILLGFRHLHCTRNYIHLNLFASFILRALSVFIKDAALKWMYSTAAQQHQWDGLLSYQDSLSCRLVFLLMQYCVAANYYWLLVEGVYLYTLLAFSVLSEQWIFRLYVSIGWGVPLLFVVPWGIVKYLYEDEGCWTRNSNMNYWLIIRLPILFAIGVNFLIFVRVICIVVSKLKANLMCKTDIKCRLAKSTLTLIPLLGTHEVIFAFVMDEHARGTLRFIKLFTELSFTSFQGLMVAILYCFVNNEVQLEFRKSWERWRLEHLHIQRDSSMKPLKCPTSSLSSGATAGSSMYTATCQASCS

Structure (SMILES) | EC50 (human GLP1R [1]) [nM] | HEK293/CRE-LUC/hGLP1R Relative Potency (% P8 EC50) (human GLP1R [1]) [%] | HEK293/CRE-LUC/hGLP1R Relative Signal:Noise (% P8) (human GLP1R [1]) [%] | HEK293/CRE-LUC/hGLP1R S/N (human GLP1R [1]) | CLint(mic) ([2]; Table 7) [µL/min/mg] | CLint scaled ([2]; human, liver microsomes, Table 5C, read-out: Human Liver microsome CLint(liver)) [mL/min/kg] | microsomal CLint ([2]; human, liver microsomes, Table 5C, read-out: Human Liver microsome CLint(mic)) [µL/min/mg] | half-life ([2]; human, liver microsomes, Table 5C, read-out: Human Liver microsome T1/2) [h] | % Bound ([3]; Human Plasma, 4 hours dialysis) [%] | % Unbound ([3]; Human Plasma, 4 hours dialysis) [%] | recovery at 4 h, 2 µM ([3]; Human Plasma, 4 hours dialysis) [%] | fraction unbound at 4 h, 2 µM ([3]; human, plasma, Table 5C) | solubility (Water solubility) [mM] | EC50 (HEK293/CRE-Luc cells) [nM] | HEK293/CRE-LUC S/N (HEK293/CRE-Luc cells) | Emax (human GLP1R [4]; HEK293, read-out: HEK293/CRE-Luc/hGLP1R Emax (% GLP-1)) [%] | EC50 (human GLP1R [4]; Table 40, CRE-dependent reporter activity, no unit printed in table (text b1912 reads values as M)) [nM]
CCc1cc(OCCCCn2cc(COCCOCCOCCOCCOCCOCCOCCOCCN)nn2)ccc1-c1ccc(C[C@H](NC(=O)[C@H](CC(=O)O)NC(=O)[C@H](CO)NC(=O)[C@@H](NC(=O)C(C)(Cc2ccccc2F)NC(=O)[C@@H](NC(=O)CNC(=O)[C@H](Cc2nn[nH]n2)NC(=O)C(C)(C)C(=O)NCCc2cnc[nH]2)[C@@H](C)O)[C@@H](C)O)C(=O)N[C@@H](CCCc2cc(C)cc(C)c2)C(N)=O)cc1 (stereo partly shown) [LP11, NH2-PEG8-triazole-P8] | 0.0161 | 33.1 | 113.3 | 74.5 | <9.6 | < 8.6 | < 9.6 | > 2.42 | 97.97 | 2.03 | 89.2 | 0.0203 | 60 (≈ 119 mg/mL) | > 200 | 1.3 | – | –
CCc1cc(OCCCCn2cc(COCCOCCOCCOCCOCCOCCOCCOCCN)nn2)ccc1-c1ccc(C[C@H](NC(=O)[C@H](CC(=O)O)NC(=O)[C@H](CO)NC(=O)[C@@H](NC(=O)[C@](C)(Cc2ccccc2F)NC(=O)[C@@H](NC(=O)CNC(=O)[C@H](Cc2nn[nH]n2)NC(=O)C(C)(C)C(=O)NCCc2cnc[nH]2)[C@@H](C)O)[C@@H](C)O)C(=O)N[C@@H](CCCc2cc(C)cc(C)c2)C(N)=O)cc1 [M3190] | – | – | – | – | – | – | – | – | – | – | – | – | – | – | – | 93.9 | 0.0168
CCc1cc(OCCCCN)ccc1-c1ccc(C[C@H](NC(=O)[C@H](CC(=O)O)NC(=O)[C@H](CO)NC(=O)[C@@H](NC(=O)[C@](C)(Cc2ccccc2F)NC(=O)[C@@H](NC(=O)CNC(=O)[C@H](Cc2nn[nH]n2)NC(=O)C(C)(C)C(=O)NCCc2cnc[nH]2)[C@@H](C)O)[C@@H](C)O)C(=O)N[C@@H](CCCc2cc(C)cc(C)c2)C(N)=O)cc1 [P9, (8S,14S,17S,20S,23S,26S)-8-((2H-tetrazol-5-yl)methyl)-26-(((S)-1-(((S)-1-amino-5-(3,5-dimethylphenyl)-1-oxopentan-2-yl)amino)-3-(4′-(4-aminobutoxy)-2′-ethyl-[1,1′-biphenyl]-4-yl)-1-oxopropan-2-yl)carbamoyl)-17-(2-fluorobenzyl)-14,20-bis((R)-1-hydroxyethyl)-23-(hydroxymethyl)-1-(1H-imidazol-5-yl)-5,5,17-trimethyl-4,6,9,12,15,18,21,24-octaoxo-3,7,10,13,16,19,22,25-octaazaoctacosan-28-oic acid] ({Malonyl(2,2-Me2,histaminyl)}-[Ala(1H-tetrazol-5-yl)]GT[αMePhe(2-F)]TSD[Bip(2'-Et,4'-O(CH2)4NH2)][Nva(5-(3,5-Me2Ph))]-NH2) | 0.00397 | 133.8 | – | 75.2 | – | – | – | – | – | – | – | – | – | > 200 | 1.3 | – | –
